Source: patent publication US20170202838A1, “IMMUNOMODULATOR” (TAIHO PHARMACEUTICAL CO., LTD., priority 2015, published 2017)

How the values were obtained:
B16F10 = test: Pulmonary metastatic nodules after intravenous injection of mouse melanoma cell line, in vivo model (Example 8); conditions: oral 12.5 mg/kg or 50 mg/kg, 14 days after implantation, compared with control group (FIG. 10)
Experimental: A cell suspension of the mouse melanoma cell line B16F10 was prepared with the use of PBS(-), and the cell suspension was injected intravenously into the mouse caudal portion at 5×10^5 cells/mouse. Compound (I) was administered orally to the mouse model at 12.5 mg/kg or 50 mg/kg on the previous day of B16F10 implantation. The number of pulmonary metastatic nodules was evaluated 14 days after implantation (i.e., 15 days after drug administration). […] On the basis of the results above and the results of Reference Example 1 such that the tumor growth inhibitory effects were not observed in the in vitro model, it was deduced that the decreased number of pulmonary metastatic nodules was achieved by the immunomodulation activity of Compound (I).

MC38 = test: Tumor volume of subcutaneous mouse colon cancer cell line, in vivo model (Example 9); conditions: Compound (I) 50 mg/kg, compared with control group (FIG. 11)
Experimental: A cell suspension of the mouse colon cancer cell line MC38 was prepared with the use of PBS(-) and 50% Matrigel, and the cell suspension was injected subcutaneously into mice at 1×10^6 cells/mouse. The mice were divided into groups when the average subcutaneous tumor volume reached approximately 50 mm^3, Compound (I) was administered at 50 mg/kg or the anti-PD-1 antibody was administered at 100 μg/mouse, and the tumor volume was measured with the elapse of time. The tumor volume was determined on the basis of the longer diameter and the shorter diameter of the tumor measured percutaneously in accordance with Equation A shown below.
Tumor volume (mm^3)=longer diameter (mm)×shorter diameter (mm)^2/2 (Equation A)

K1735M2 = test: Tumor volume of subcutaneous mouse melanoma cell line, potentiation of anti-PD-1 or anti-PD-L1 antibody, in vivo model (Example 10); conditions: Compound (I) 50 mg/kg, antibody 100 μg/mouse, alone or in combination (FIG. 12)
Experimental: A cell suspension of the mouse melanoma cell line K1735M2 was prepared with the use of PBS(-) and 50% Matrigel, and the cell suspension was injected subcutaneously into mice at 1×10^6 cells/mouse. The mice were divided into groups based on their body weights 1 day after implantation, Compound (I) (50 mg/kg) or the anti-PD-1 antibody or anti-PD-L1 antibody (100 μg/mouse) was administered thereto alone or either the anti-PD-1 antibody or the anti-PD-L1 antibody was administered in combination with Compound (I), and the tumor volume was measured with the elapse of time. The tumor volume was determined on the basis of the longer diameter and the shorter diameter of the tumor measured percutaneously in accordance with Equation A shown above.

Structure (SMILES): C=CC(=O)N[C@H]1CCc2c(-c3cnc4ccccc4c3)c3c(N)ncnc3n2C1 [Compound (I), (S)—N-(4-amino-5-(quinolin-3-yl)-6,7,8,9-tetrahydropyrimido[5,4-b]indolizin-8-yl)acrylamide]
- number of pulmonary metastatic nodules (B16F10): decreased in a dose-dependent manner
- extent of tumor growth inhibition (tumor volume) (MC38): greater
- extent of tumor growth inhibition (tumor volume) (K1735M2): not sufficient
